The values that follow come from patent publication US20230203060A1 (GENFLEET THERAPEUTICS (SHANGHAI) INC., priority 2020, published 2023).

Assay [1] relates to KRAS G12C mutant NCI-H358 cells. The assay is described as follows: Cell proliferation inhibition experiment, 3D spheroid, CellTiter-Glo, NCI-H358. In kind it is cell-based, human. The note with it: Homo sapiens, NCI-H358, 120 h, NCI-H358 (KRAS G12C mutant) 3D spheroid, 5 days with compound, CellTiter-Glo; read-out: H358 IC50. In outline: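 Spheroids grown overnight from 800 H358 or 400 A549 cells were treated for 5 days with serially diluted compound (3.16-fold, 0.1% DMSO, 2% FBS). ATP-based luminescence gave IC50.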
In general terms: In ATP-based viability assays light output follows the ATP content of the culture.

The test system of assay [2] is phosphorylated ERK downstream of KRAS G12C in MIA PaCa2 cells. The assay can be described thus: Cell p-ERK detection experiment (HTRF) in MIA PaCa2. Type of assay: cell-based, human. The note with it: Homo sapiens, MIA PaCa-2, 2 h, MIA PaCa2 cells, 2 hours with compound, Advance ERK phospho-T202/Y204 HTRF kit; read-out: p-ERK IC50. Summed up:
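KRAS G12C-mutant MIA PaCa2 cells (2.5E4 per well, overnight) exposed 2 h to a 3.16-fold compound dilution series at 0.1% DMSO. Lysates probed 4 h with HTRF antibodies to ERK phospho-T202/Y204; inhibition versus DMSO control and blank, IC50 by four-parameter fit.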
On the technique in general: In TR-FRET formats the signal depends on donor and acceptor labels being close together.

Each structure is given as a SMILES string.

One may read the IC50 as the concentration that inhibits the measured activity by half. For `C=CC(=O)N1CCN2C(=O)c3c(N4CCN(C5CC5)C[C@@H]4C)nc(-c4c(O)cccc4F)c(Cl)c3OC[C@H]2C1` [Z312-1, (6aR)-8-acryloyl-4-chloro-1-((S)-4-cyclopropyl-2-methylpiperazin-1-yl)-3-(2-fluoro-6-hydroxyphenyl)-6,6a,7,8,9,10-hexahydro-12H-pyrazino[2,1-c]pyrido[3,4-f][1,4]oxazepin-12-one], the values for the IC50 in assay [1] and in assay [2] were 13.5 nM and 194 nM, respectively.

Take `C=CC(=O)N1CCN2C(=O)c3c(N4CC(C#N)CC4(C)C)nc(-c4c(O)cccc4F)c(F)c3OC[C@H]2C1` (stereo partly shown) [Z335]: the IC50 worked out at 11 nM in assay [1] and 130 nM in assay [2].

`C=CC(=O)N1CCN2C(=O)c3c(N4CCC(N(C)C)C4(C)C)nc(-c4c(O)cccc4F)c(Cl)c3OC[C@H]2C1` (stereo partly drawn) [Z334, (6aR)-8-acryloyl-4-chloro-1-(3-(dimethylamino)-2,2-dimethylpyrrolidin-1-yl)-3-(2-fluoro-6-hydroxyphenyl)-6,6a,7,8,9,10-hexahydro-12H-pyrazino[2,1-c]pyrido[3,4-f][1,4]oxazepin-12-one]: the results for the IC50 in assay [1] and in assay [2] were 9 nM and 62 nM, respectively.

For the compound `C=CC(=O)N1CCN2C(=O)c3c(N4CCCC4(C)C)nc(-c4c(O)cccc4F)c(Cl)c3OC[C@H]2C1` [Z22, (6aR)-8-acryloyl-4-chloro-1-(2,2-dimethylpyrrolidin-1-yl)-3-(2-fluoro-6-hydroxyphenyl)-6,6a,7,8,9,10-hexahydro-12H-pyrazino[2,1-c]pyrido[3,4-f][1,4]oxazepin-12-one], the IC50 in assay [1] was found to be 2 nM; in assay [2], 26 nM.

For `C=CC(=O)N1CCN2C(=O)c3c(N4C[C@@H](N5CCOCC5)CC4(C)C)nc(-c4c(O)cccc4F)c(Cl)c3OC[C@H]2C1` (single isomer, unassigned) [Z297-2], the IC50 in assay [1] amounted to 1 nM; in assay [2], 18 nM.

`C=CC(=O)N1CCN2C(=O)c3c(N4CCOCC4)nc(-c4nc(N)cc(C)c4C(F)(F)F)c(Cl)c3OC[C@H]2C1` [Z314]: the IC50 is 6 nM in assay [1] and 62 nM in assay [2].

Turning to `C=CC(=O)N1CCN2C(=O)c3c(N4C[C@@H](O)CC4(C)C)nc(-c4c(F)ccc(Cl)c4O)c(F)c3OC[C@H]2C1` (single isomer, unassigned) [Z341-1], the figures for the IC50 in assay [1] and in assay [2] were 8 nM and 106 nM, respectively.

With `C=CC(=O)N1CCN2C(=O)c3c(N4CC(CO)CC4(C)C)nc(-c4c(O)cccc4F)c(Cl)c3OC[C@H]2C1` (stereo partly drawn) [Z240, (6aR)-8-acryloyl-4-chloro-3-(2-fluoro-6-hydroxyphenyl)-1-(4-(hydroxymethyl)-2,2-dimethylpyrrolidin-1-yl)-6,6a,7,8,9,10-hexahydro-12H-pyrazino[2,1-c]pyrido[3,4-f][1,4]oxazepin-12-one], the IC50 was found to be 2.4 nM in assay [1] and 22 nM in assay [2].

As for `C=CC(=O)N1CCN2C(=O)c3c(N4CCC[C@@]4(C)CO)nc(-c4c(O)cccc4F)c(Cl)c3OC[C@H]2C1` [Z279-2], the figures for the IC50 in assay [1] and in assay [2] were 3.8 nM and 35 nM, respectively.

For the compound `C=CC(=O)N1CCN2C(=O)c3c(N4C[C@@H](OC)CC4(C)C)nc(-c4c(O)cccc4F)c(Cl)c3OC[C@H]2C1` (single isomer, unassigned) [Z244-1], the figures for the IC50 in assay [1] and in assay [2] were 1.9 nM and 31 nM, respectively.

`C=CC(=O)N1CCN2C(=O)c3c(N4C[C@@H](O)CC4(C)C)nc(-c4c(O)cccc4F)c(F)c3OC[C@H]2C1` (single isomer, unassigned) [Z256-1]: the figures for the IC50 in assay [1] and in assay [2] were 2.2 nM and 20 nM, respectively.

In the case of `C=CC(=O)N1CCN2C(=O)c3c(N4C[C@@H](N(C)C)C[C@@H]4C)nc(-c4c(O)cccc4F)c(Cl)c3OC[C@H]2C1` [Z237-2, (6aR)-8-acryloyl-4-chloro-1-((2S,4S)-4-(dimethylamino)-2-methylpyrrolidin-1-yl)-3-(2-fluoro-6-hydroxyphenyl)-6,6a,7,8,9,10-hexahydro-12H-pyrazino[2,1-c]pyrido[3,4-f][1,4]oxazepin-12-one], the IC50 came out at 6 nM in assay [1] and 30 nM in assay [2].

Turning to `C=CC(=O)N1CCN2C(=O)c3c(N4C[C@H](O)[C@H]4C)nc(-c4c(O)cccc4F)c(Cl)c3OC[C@H]2C1` (single isomer, unassigned) [Z102-4], the IC50 in assay [1] was 15.4 nM; in assay [2], 134 nM.

Consider `C=CC(=O)N1CCN2C(=O)c3c(N4CCC(OC)C4(C)C)nc(-c4c(O)cccc4F)c(Cl)c3OC[C@H]2C1` (stereo partly drawn) [Z241a, (6aR)-8-acryloyl-4-chloro-3-(2-fluoro-6-hydroxyphenyl)-1-(3-methoxy-2,2-dimethylpyrrolidin-1-yl)-6,6a,7,8,9,10-hexahydro-12H-pyrazino[2,1-c]pyrido[3,4-f][1,4]oxazepin-12-one], for which the IC50 in assay [1] turned out to be 1.1 nM; in assay [2], 12 nM.

As to `C=CC(=O)N1CCN2C(=O)c3c(N4CC[C@@H](OC)C4(C)C)nc(-c4c(O)cccc4F)c(F)c3OC[C@H]2C1` (single isomer, unassigned) [Z327-1], the IC50 in assay [1] turned out to be 4 nM; in assay [2], 66 nM.

With `C=CC(=O)N1CCN2C(=O)c3c(N4C[C@H](N(C)C)CC4(C)C)nc(-c4c(O)cccc4F)c(Cl)c3OC[C@H]2C1` (single isomer, unassigned) [Z324-2], the IC50 in assay [1] was 4.4 nM; in assay [2], 34 nM.

Regarding `C=CC(=O)N1CCN2C(=O)c3c(N4CCN(CC)C(C)(C)C4)nc(-c4c(O)cccc4F)c(Cl)c3OC[C@H]2C1` [Z322, (6aR)-8-actyloyl-4-chloro-3-(2-fluoro-6-hydroxyphenyl)-1-(4-ethyl-3,3-dimethylpiperazin-1-yl)-6,6a,7,8,9,10-hexahydro-12H-pyrazino[2,1-c]pyrido[3,4-f][1,4]oxazepin-12-one], the IC50 in assay [1] was determined as 4.5 nM; in assay [2], 36 nM.

With `C=CC(=O)N1CCN2C(=O)c3c(N4CC[C@@H](N(C)C)C4(C)C)nc(-c4c(O)cccc4F)c(Cl)c3OC[C@H]2C1` (single isomer, unassigned) [Z360-1], the values for the IC50 in assay [1] and in assay [2] were 11.8 nM and 85 nM, respectively.

Consider `C=CC(=O)N1CCN2C(=O)c3c(N4C[C@@](C)(O)CC4(C)C)nc(-c4c(O)cccc4F)c(Cl)c3OC[C@H]2C1` (single isomer, unassigned) [Z243-1], for which the IC50 in assay [1] amounted to 0.6 nM; in assay [2], 8 nM.

On to `C=CC(=O)N1CCN2C(=O)c3c(N4CC(OC)CC4(C)C)nc(-c4c(O)cccc4F)c(Cl)c3OC[C@H]2C1` (stereo partly drawn) [Z244, (6aR)-8-acryloyl-4-chloro-3-(2-fluoro-6-hydroxyphenyl)-1-(4-methoxy-2,2-dimethylpyrrolidin-1-yl)-12-oxo-6,6a,7,8,9,10-hexahydro-12H-pyrazino[2,1-c]pyrido[3,4-f][1,4]oxazepin-12-one], for which the results for the IC50 in assay [1] and in assay [2] were 2.9 nM and 19 nM, respectively.

Take `C=CC(=O)N1CCN2C(=O)c3c(N4CCN(C(C)=O)C[C@@H]4C)nc(-c4c(O)cccc4F)c(Cl)c3OC[C@H]2C1` [Z313-1]: the figures for the IC50 in assay [1] and in assay [2] were 1.6 nM and 23 nM, respectively.

Regarding `C=CC(=O)N1CCN2C(=O)c3c(N4CCN(S(C)(=O)=O)C[C@@H]4C)nc(-c4c(O)cccc4F)c(Cl)c3OC[C@H]2C1` [Z318-1, (6aR)-8-acryloyl-1-((S)-2-methyl-4-(methylsulfonyl)piperazin-1-yl)-4-chloro-3-(2-fluoro-6-hydroxyphenyl)-6,6a,7,8,9,10-hexahydro-12H-pyrazino[2,1-c]pyrido[3,4-f][1,4]oxazepin-12-one], the IC50 in assay [1] stood at 5.7 nM; in assay [2], 87 nM.

Consider `C=CC(=O)N1CCN2C(=O)c3c(N4CCN(C(=O)CC)C[C@@H]4C)nc(-c4c(O)cccc4F)c(Cl)c3OC[C@H]2C1` [Z316-1, (6aR)-8-acryloyl-4-chloro-3-(2-fluoro-6-hydroxyphenyl)-1-((S)-2-methyl-4-propionylpiperazin-1-yl)-6,6a,7,8,9,10-hexahydro-12H-pyrazino[2,1-c]pyrido[3,4-f][1,4]oxazepin-12-one], for which the IC50 in assay [1] was determined as 1.3 nM; in assay [2], 20 nM.
